Assay results: patent publication US20220168310A1, “INHIBITION OF ADENOVIRUS WITH FILOCICLOVIR” (Microbiotix, Inc., priority 2019, published 2022)
Like-named read-outs stand apart in the source and are kept apart here.

Legend:
[1] = system: Adenovirus 5 (AdV5); test: Cytopathic effects (CPE) reduction assay, AdV5 in HFF cells, 384-well; type: cell-based, human adenovirus; settings: for SI: CC50/EC50, AdV5
[2] = Cytotoxicity, CellTiter-Glo cell viability assay in HFF cells; settings: human
Protocol: (§1) Human foreskin tissue was obtained from the University of Alabama at Birmingham tissue procurement facility with approval from the Institutional Review Board. The tissue was stored at 4° C. in cell culture medium consisting of minimum essential media (MEM) with Earle's salts supplemented with 10% fetal bovine serum (FBS; HyClone, Inc., Logan, Utah) and standard concentration of L-glutamine, amphotericin B (Fungizone), and vancomycin. The tissue was then placed in a phosphate-buffered saline solution, minced, and rinsed to remove the red blood cells. Tissue fragments were then resuspended in a trypsin-EDTA solution and incubated at 37° C. to disperse the cells, which were then collected by centrifugation. Cell pellets were then resuspended in 4 ml culture medium, placed in a 25-cm^2 tissue culture flask, and incubated at 37° C. for 24 h. The culture medium was then replaced with fresh medium and condition of the cells was monitored daily until a confluent cell monolayer was formed. The HFF cells were then expanded through serial passages in standard growth medium of MEM with Earle's salts supplemented with 10% FBS, L-glutamine, penicillin, and gentamicin. Each lot of cells was confirmed to be free of mycoplasma infection and routinely passaged or used for assays at or before passage 10.
(§2) Antiviral and cytotoxicity data were obtained in a series of three to five separate experiments for each virus to provide an accurate estimate of antiviral activity and statistical data. Each assay included positive and negative control compounds as well as infected and uninfected controls to ensure the integrity of the experiment.
(§3) The CPE reduction assays were performed in monolayers of human foreskin fibroblast (HFF) cells (5000/well) in 384-well plates in assay media consisting of MEM with Earle's salts, 2% FBS and standard concentrations of L-glutamine, penicillin and gentamycin. 5000 cells were seeded in 384-well microtiter plates and incubated at 37° C. in a humidified 5% CO2 incubator for 24 hours to allow for formation of confluent monolayers.
(§4) Cell monolayers were infected at a multiplicity of infection (MOI) of approximately 0.005 PFU/cell with virus strains including AdV5. […] Cytopathology was determined by the addition of CellTiter-Glo® reagent (Promega, Madison, Wis.). Concentrations of antiviral test compounds sufficient to reduce CPE by 50% (EC50) were interpolated from the experimental data using standard methods in Microsoft® Excel.

[3] = system: human foreskin fibroblast (HFF) cells; test: as above
Protocol: as §1, §2, §3, §4

[4] = system: Human AdV6; test: High dose filociclovir against intravenously administered AdV6 in immunosuppressed hamsters (Example 5); settings: 5 days post challenge, CDV 20 mg/kg 3 times weekly
Protocol: Four dose levels were tested: 10, 30, 60, and 100 mg/kg p.o. q.d. The highest dose was determined based on rat toxicology data.
All hamsters were immunosuppressed using cyclophosphamide (CP). CP was administered intraperitoneally at a dose of 140 mg/kg, and then twice weekly at a dose of 100 mg/kg.
Filociclovir, in powdered form, was suspended in 0.4% carboxymethyl cellulose (Sigma C5678) at 1, 3, 6, and 10 mg/ml and sonicated to visual homogeneity and aliquots stored at 4° C. Aliquots were allowed to equilibrate to room temperature before dosing. Hamsters weighing approximately 100 g were dosed with a 1 ml volume of the appropriate suspension for the 10, 30, 60, and 100 mg/kg dose levels. References to “vehicle” refers to 0.4% carboxymethyl cellulose
The hamsters were divided into 8 groups, 15 hamsters/group, (with the exception of Group 2, which had only 5 hamsters; see Table 3), immunosuppressed, and then injected i.v. with vehicle (Groups 1-2) or 2×10^10 PFU/kg of AdV6 (Groups […]). Groups 1 and 3 received drug vehicle (p.o. q.d.), Group 4 received 10 mg/kg filociclovir (p.o. q.d.), Group 5 received 30 mg/kg filociclovir (p.o. q.d.), Group 6 received 60 mg/kg filociclovir (p.o. q.d.), Groups 2 and 7 received 100 mg/kg filociclovir (p.o. q.d.), and Group 8 received cidofovir (20 mg/kg, 3 times weekly). For all groups, drug administration started 1 day before challenge, and continued according to the schedule above for the duration of the study.
The body weights and any signs of morbidity of the animals were recorded daily. At 5 days post challenge, 5 hamsters (designated at the start of the experiment) from each group (with the exception of Group 2) were sacrificed, and gross pathological observation was performed. Serum and liver samples were collected and the virus burden in liver was determined by a TCID50 assay, and the serum was analyzed for transaminase levels. The remaining 10 hamsters were sacrificed at 14 days post challenge. Hamsters that became visually moribund before Day 14 were sacrificed as needed. In addition to the hamsters observed to be moribund, all hamsters that lost more than 20% of their original body weight were also sacrificed. For the hamsters sacrificed at the conclusion of the experiment and those sacrificed as moribund, serum and liver tissues were collected and banked for possible determination of serum transaminase levels and virus burden in the liver. Liver tissue was preserved in formalin for possible histopathological examination.

[5] = system: Human AdV6; test: Low dose filociclovir against intravenously administered AdV6 in immunosuppressed hamsters (Example 6)
Protocol: Three dose levels were tested: 1, 3, and 10 mg/kg p.o. q.d.
All hamsters were immunosuppressed using cyclophosphamide (CP) administered intraperitoneally at a dose of 140 mg/kg, and then twice weekly at a dose of 100 mg/kg. Filociclovir in powdered form was suspended in 0.4% carboxymethyl cellulose (Sigma C5678) at 0.1, 0.3, and 1.0 mg/ml and sonicated to visual homogeneity. Filociclovir was made up once weekly, aliquoted into daily portions, and stored at 4° C. Aliquots were allowed to equilibrate to room temperature before dosing.
Hamsters were distributed into 7 groups, 15 hamsters/group (see Table 4), immunosuppressed as described above, and injected i.v. with vehicle (Groups 1-2) or 4×10^10 PFU/kg of AdV6 (Groups 3-7). Groups 1 and 3 received drug vehicle (p.o. q.d.), Groups 2 and 6 received 10 mg/kg filociclovir (p.o. q.d.), Group 4 received 3 mg/kg filociclovir (p.o. q.d.), Group 5 received 1 mg/kg filociclovir (p.o. q.d.), and Group 7 received cidofovir (one dose of 37 mg/kg, followed by 20 mg/kg doses 3 times weekly). For all groups, drug administration started 1 day before challenge, and continued according to the schedule above for the duration of the study.
The body weights and any signs of morbidity of the animals were monitored and recorded daily. At 5 days post challenge, 5 hamsters (designated at the start of the experiment) from each group were sacrificed, and gross pathological observation was performed. Serum and liver were collected and virus burden in liver was determined by TCID50 assay and the serum was analyzed for transaminase levels. The remaining 10 hamsters were sacrificed at 14 days post challenge. Hamsters that became moribund before Day 14 were sacrificed as needed. In addition to the animals judged moribund by observation, we sacrificed all hamsters that lost more than 20% of their original body weight. For all animals, liver tissue was preserved in formalin for histopathological examination.

[6] = system: AdV5; settings: background, Kinchington et al 2005 cited; read-out: IC50 against AdV5; cited from earlier work
[7] = Human mastadenovirus C, AdV5, HFF cells, 384 well CPE, average and SD from five independent experiments, read-out: EC50
[8] = human foreskin fibroblast (HFF) cell monolayers, CC50, HFF cells, run with AdV5 assay, average and SD from five independent experiments
[9] = AdV5, HFF cells, 384 well CPE, average and SD from five independent experiments, read-out: EC50
[10] = HFF cells, run with AdV5 assay, average and SD from five independent experiments

Compound: Nc1nc2c(ncn2COCCO)c(=O)[nH]1 [ACV, acyclovir]
- SI [1]: 1.0
- EC50 [1, 7]: > 100 µM
- CC50 [2, 8]: > 100 µM

Compound: OC[C@H]1O[C@@H](n2c(Br)nc3cc(Cl)c(Cl)cc32)[C@H](O)[C@@H]1O [BDCRB, bromodichlororibobenzimidazole]
- EC50 [1, 9]: 70 ± 39 µM
- SI [1]: 1.3
- CC50 [3, 10]: 91 ± 13 µM

Compound: Nc1ccn(C[C@@H](CO)OCP(=O)(O)O)c(=O)n1 [CDV, cidofovir, reference compound]
- animals with elevated serum transaminase levels (ALT) ([4]; filociclovir p.o. q.d. groups): none
- virus burden in the liver ([4]; TCID50): very low to nonquantifiable levels
- AdV6-induced liver damage, serum transaminase (ALT) ([5]; CDV, 5 days post challenge): completely prevented AdV6-induced liver pathology
- AdV6 replication in the liver ([5]; CDV, 5 days post challenge, TCID50): completely prevented AdV6 replication in the liver
- body weight loss ([5]; cidofovir 37 mg/kg once, then 20 mg/kg 3 times weekly): completely reversed body weight loss
- EC50 ([1]; Human mastadenovirus C, HFF): 4 ± 2 µM
- CC50 [2, 8]: 97 ± 4 µM

Compound: CCCCCCCCCCCCCCCCOCCCOP(=O)(O)CO[C@H](CO)Cn1ccc(N)nc1=O [CMX001, brincidofovir]
- SI [1]: 27.7
- EC50 [1, 7]: < 0.03 µM
- CC50 [2, 8]: 0.83 ± 0.7 µM

Compound: O=c1[nH]c(=O)n([C@@H]2O[C@H](CO)[C@@H](O)[C@@H]2F)cc1I [FIAU]
- EC50 [1, 9]: > 100 µM
- SI [1]: 1.0
- CC50 [3]: > 100 µM

Compound: Nc1nc(O)c2ncn(COC(CO)CO)c2n1 [GCV, ganciclovir]
- IC50 [6]: 66 ± 15.1 µM
- EC50 ([1]; Human mastadenovirus C, HFF): 66 ± 15.1 µM
- IC50 ([1]; Human mastadenovirus C, HFF, read-out: IC50 value against AdV5): 66 µM
- CC50 [2, 8]: > 100 µM

Compound: O=c1[nH]c(=O)n([C@H]2C[C@H](O)[C@@H](CO)O2)cc1I [IDU, idoxuridine]
- SI [1]: 1.0
- EC50 [1, 7]: > 100 µM
- CC50 [2, 8]: > 100 µM

Compound: O=c1[nH]c(=O)n([C@@H]2CO[C@H](CO)O2)cc1/C=C/Br [L-BHDU, L-Bromovinyl-Hydroxymethyl-Dioxolan Uracil]
- EC50 [1, 9]: > 100 µM
- SI [1]: 1.0
- CC50 [3]: > 100 µM

Compound: Cc1cn([C@H]2C[C@H](O)[C@]3(CO)C[C@H]23)c(=O)[nH]c1=O [N-MCT, N-methanocarbathymidine]
- EC50 [1, 9]: 57 ± 47 µM
- SI [1]: 1.3
- CC50 [3, 10]: 72 ± 33 µM

Compound: Nc1nc2c(ncn2CCC(CO)CO)c(=O)[nH]1 [PCV, penciclovir]
- SI [1]: 1.0
- EC50 [1, 7]: > 100 µM
- CC50 [2, 8]: > 100 µM

Compound: O=C(O)P(=O)(O)O [PFA, foscarnet]
- SI [1]: 1.0
- EC50 [1, 7]: > 1000 µM
- CC50 [2, 8]: > 1000 µM

Compound: Nc1ncnc2c1ncn2CCOCP(=O)(O)O [PMEA, adefovir]
- SI [1]: 2.1
- EC50 [1, 7]: 48 ± 8 µM
- CC50 [2]: > 100 µM
